Data: article PMC8899577, “Targeting the anti-apoptotic Bcl-2 family proteins: machine learning virtual screening and biological evaluation of new small molecules” (Theranostics, 2022)

Key:
[1] = tested on: U937 xenografts; assay: In vivo tumor growth, U937 xenografts; parameters: species or system athymic CD1 nude mice
Protocol: (§1) All procedures involving mice and their care were authorized and certified by the decree no. 67/97A of the Italian Minister of Health and protocol 2560/97 of the Rome Health Service Unit (ASL RMB). Regina Elena National Cancer Institute approved all the procedures involving animals. 5 x 10^6 U937 (in 50% Matrigel, Corning, NY, USA) or A375 cells were subcutaneously injected in the right flank of 6-8-week-old female immunodeficient athymic CD1 nude mice. IS21 was dissolved in 10% DMSO, 30% PEG400 and 60% NaCl (vehicle). Intraperitoneal treatment of vehicle or IS21 (8 mice for each group) every 24 h started when tumors reached the palpability (6 days for U937 and 7 days for A375 cells). […] Animals were observed daily, weighted two times/week and tumor volume (mm^3) calculated as length × width^2 × π/6. At the end of the treatment the tumors were collected and weighed.
Based on pharmacokinetic analysis, we next evaluated the effect of IS21 on in vivo tumor growth of leukemic and melanoma derived xenografts. To this aim, U937 were injected subcutaneously and treated for two weeks with vehicle or with IS21 (70 mg/kg or 100 mg/kg, 5 days/week).
Figure 9 Analysis in vivo of the effect of IS21 on both leukemia and melanoma models. Analysis of in vivo tumor growth in nude mice injected with (A) U937 and (B) A375 cells and treated with vehicle or with IS21 at the indicated concentrations for (A) two or (B) three weeks. Experiments were repeated twice. * p < 0.05, *** p < 0.0002, **** p < 0.0001.

[2] = tested on: A375 melanoma xenografts; assay: In vivo tumor growth, A375 xenografts; conditions: i.p. 100 mg/kg, 5 days/week
Protocol: as §1
In particular, mice injected with A375 melanoma cells were treated with vehicle or with IS21 (100 mg/kg, 5 days/week) for three weeks.
Experiments were repeated
426 twice. 4 animals/group. * p < 0.01, ** p < 0.001, *** p < 0.0001. (B) Representative images of
427 explanted tumors of two independent experiments. The scale bar represents 1 cm. (C) Analysis of
(D) Anal ysis of mice weight after the in vivo ex periment perform ed
430 as reported in (A). ( A,C, D) D ata are report ed as mean ± SD of two indep endent ex periments. […]

SMILES: CCCCCOc1ccc(C2/C(=C(\O)c3ccc4c(c3)CC(C)O4)C(=O)C(=O)N2c2nnc(SCc3ccc(Cl)cc3)s2)cc1OCC (stereo not shown) [IS21]
- delay of tumor growth ([1]; U937, 100 mg/kg until day 22, compared with control or 70 mg/kg): about 11 days
- growth of U937 xenografts ([1]; i.p. 70 mg/kg or 100 mg/kg, 5 days/week, two weeks): reduced significantly
- day after cell injection from which U937 xenograft growth is significantly reduced ([1]; i.p. 70 mg/kg, 5 days/week, two weeks): 19 days
- day after cell injection from which U937 xenograft growth is significantly reduced ([1]; i.p. 100 mg/kg, 5 days/week, two weeks): 16 days
- day after cell injection from which A375 tumor growth is reduced ([2]; three weeks): 22 days
- in vivo tumor growth of A375 ([2]; three weeks): strongly reduced
- tolerability of treatment (weight loss, diet consumption, postural and behavioral changes) ([2]; tumor-bearing nude mice): highly tolerated
